# Source: PubChem BioAssay (NCI)
#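 Briefly, cells in 96-well plates were exposed to five compound concentrations for 48 h, and endpoints were estimated by linear interpolation. At the TGI there is no net growth.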
# Assays:
# Assay in all cases: inhibition of tumour cell growth, NCI panel, 48 h
# HCT-116 colon = test system: HCT-116 colon
# HCT-15 colon = test system: HCT-15 colon
# HOP-62 NSCLC = test system: HOP-62 NSCLC
# IGROV1 ovarian = test system: IGROV1 ovarian
# M14 melanoma = test system: M14 melanoma
# MDA-MB-231 breast = test system: MDA-MB-231 breast
# NCI-H23 lung = test system: NCI-H23 lung
# SK-MEL-5 melanoma = test system: SK-MEL-5 melanoma
# SK-OV-3 ovarian = test system: SK-OV-3 ovarian
# SNB-75 CNS = test system: SNB-75 CNS
# T-47D breast = test system: T-47D breast
# UACC-62 melanoma = test system: UACC-62 melanoma
# HL-60(TB) leukemia = test system: HL-60(TB) leukemia
# MALME-3M melanoma = test system: MALME-3M melanoma
SMILES,TGI (HCT-116 colon),TGI (HCT-15 colon),TGI (HOP-62 NSCLC),TGI (IGROV1 ovarian),TGI (M14 melanoma),TGI (MDA-MB-231 breast),TGI (NCI-H23 lung),TGI (SK-MEL-5 melanoma),TGI (SK-OV-3 ovarian),TGI (SNB-75 CNS),TGI (T-47D breast),TGI (UACC-62 melanoma),TGI (HL-60(TB) leukemia),TGI (MALME-3M melanoma)
N#CCCN(CCC#N)c1ccc(C(N=Nc2ccccc2)=Nc2ccccc2)cc1,> 100 µM,> 100 µM,> 100 µM,> 100 µM,> 100 µM,> 100 µM,> 100 µM,> 100 µM,> 100 µM,> 100 µM,> 100 µM,> 100 µM,,
CCCc1cc(=O)oc2c3c(c4c(c12)OC(C)(C)C=C4)O[C@@H](C)[C@H](C)C3=O,24.2 µM,46.1 µM,35.5 µM,28.4 µM,,33.2 µM,38.4 µM,32.3 µM,,30.7 µM,,,33.4 µM,35.6 µM
CCCCCCOc1ccc(C(=O)NOCc2ccccc2)cc1,> 100 µM,> 100 µM,> 100 µM,> 100 µM,> 100 µM,> 100 µM,> 100 µM,> 100 µM,> 100 µM,> 100 µM,,> 100 µM,> 100 µM,
CCCCc1c2c(nc3c1CCCC3O)/C(=C/c1ccccc1)CCC2 (configuration not stated),> 100 µM,61.6 µM,> 100 µM,> 100 µM,53.8 µM,,> 100 µM,39.6 µM,> 100 µM,> 100 µM,,95.7 µM,43 µM,44.8 µM
CC1OC(OC2C(O[C@H]3CC[C@@]4(C)[C@@H](CC[C@@H]5[C@@H]4CC[C@]4(C)[C@@H]6[C@H](C[C@@H]54)O[C@]4(CC[C@@H](C)CO4)[C@H]6C)C3)OC(CO)C(OC3OC(CO)C(O)C(OC4OCC(O)C(O)C4O)C3OC3OCC(O)C(O)C3O)C2O)C(O)C(O)C1O (some centres not stated),1.02 µM,2.61 µM,2.03 µM,2.73 µM,0.963 µM,9.57 µM,2.93 µM,,3.44 µM,2.86 µM,,1.77 µM,1.01 µM,2.63 µM
COc1cccc(NC(=S)Nn2c(C)nc3ccccc3c2=O)c1,> 100 µM,> 100 µM,> 100 µM,> 100 µM,> 100 µM,,> 100 µM,> 100 µM,> 100 µM,> 100 µM,,> 100 µM,> 100 µM,> 100 µM
Cn1c(=O)cc(NCc2ccc(Cl)cc2)[nH]c1=O,> 100 µM,> 100 µM,77.4 µM,> 100 µM,> 100 µM,> 100 µM,> 100 µM,> 100 µM,> 100 µM,84.5 µM,> 100 µM,> 100 µM,,> 100 µM
CCOC(=O)c1c(C)c2c(n1C)CCc1cn[nH]c1-2,> 100 µM,> 100 µM,> 100 µM,> 100 µM,,,> 100 µM,> 100 µM,> 100 µM,> 100 µM,,> 100 µM,> 100 µM,> 100 µM
COc1ccc(N=C(C)c2ccncc2)cc1,> 100 µM,> 100 µM,> 100 µM,> 100 µM,> 100 µM,> 100 µM,> 100 µM,> 100 µM,> 100 µM,> 100 µM,> 100 µM,> 100 µM,,> 100 µM
